Measured values taken from US20260207585A1, “METHODS AND COMPOSITIONS FOR THE TREATMENT OF PARKINSON'S DISEASE, HUNTINGTON'S DISEASE, AMYOTROPHIC LATERAL SCLEROSIS, AND LEARNING DISORDERS” (Cedars-Sinai Medical Center, priority 2022, published 2026).
Read-outs that look alike come from different tables or passages of the source.

Assays:
[1] = molecular target: PRMT5/MEP50 Complex (Homo sapiens, UniProt O14744); assay: Methyltransferase inhibition panel: PRMT5/MEP50 Complex; assay type: biochemical
Protocol: (§1) The ability of ETP69 to inhibit methyltransferases was tested.

[2] = molecular target: DNMT1 (Homo sapiens, UniProt P26358); assay: Methyltransferase inhibition panel: DNMT1; assay type: biochemical
Protocol: as §1

[3] = molecular target: T1, NSD2 (Homo sapiens, UniProt O96028); assay: Methyltransferase inhibition panel: NSD2; assay type: biochemical
T1 sequence (O96028 1-1365): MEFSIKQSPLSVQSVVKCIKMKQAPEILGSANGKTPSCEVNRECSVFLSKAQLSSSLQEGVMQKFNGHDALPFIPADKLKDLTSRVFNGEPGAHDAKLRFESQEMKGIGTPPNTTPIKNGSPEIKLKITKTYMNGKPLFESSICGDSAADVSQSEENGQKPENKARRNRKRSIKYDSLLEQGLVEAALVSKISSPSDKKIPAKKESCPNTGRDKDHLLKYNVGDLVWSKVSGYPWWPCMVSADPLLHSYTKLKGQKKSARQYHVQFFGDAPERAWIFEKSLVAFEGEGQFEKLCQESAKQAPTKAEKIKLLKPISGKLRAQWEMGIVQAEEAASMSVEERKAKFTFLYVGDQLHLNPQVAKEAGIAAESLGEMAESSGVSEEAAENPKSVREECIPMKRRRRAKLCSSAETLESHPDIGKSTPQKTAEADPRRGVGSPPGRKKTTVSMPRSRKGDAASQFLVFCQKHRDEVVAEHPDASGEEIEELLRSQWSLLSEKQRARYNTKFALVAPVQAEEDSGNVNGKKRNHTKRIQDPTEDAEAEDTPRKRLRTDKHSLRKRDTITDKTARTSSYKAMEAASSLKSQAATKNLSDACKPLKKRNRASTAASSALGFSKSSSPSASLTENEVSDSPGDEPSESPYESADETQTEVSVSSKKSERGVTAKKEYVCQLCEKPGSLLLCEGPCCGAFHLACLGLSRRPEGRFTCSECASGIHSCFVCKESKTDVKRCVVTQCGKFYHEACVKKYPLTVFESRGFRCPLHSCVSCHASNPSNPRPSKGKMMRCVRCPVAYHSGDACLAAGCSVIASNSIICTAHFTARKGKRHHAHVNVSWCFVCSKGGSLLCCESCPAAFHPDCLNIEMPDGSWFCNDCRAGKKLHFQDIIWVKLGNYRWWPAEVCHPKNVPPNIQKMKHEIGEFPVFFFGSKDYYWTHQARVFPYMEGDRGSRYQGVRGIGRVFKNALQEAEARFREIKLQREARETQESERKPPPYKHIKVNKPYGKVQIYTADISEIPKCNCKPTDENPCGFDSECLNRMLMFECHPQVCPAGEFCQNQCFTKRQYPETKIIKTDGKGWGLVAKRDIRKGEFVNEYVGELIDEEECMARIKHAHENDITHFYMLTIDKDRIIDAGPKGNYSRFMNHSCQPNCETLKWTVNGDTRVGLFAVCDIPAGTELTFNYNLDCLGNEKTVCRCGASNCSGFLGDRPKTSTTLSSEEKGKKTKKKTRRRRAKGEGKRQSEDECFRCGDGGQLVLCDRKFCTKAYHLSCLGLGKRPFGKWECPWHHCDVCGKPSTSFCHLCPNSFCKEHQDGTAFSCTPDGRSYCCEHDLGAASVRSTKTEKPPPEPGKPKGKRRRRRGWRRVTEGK
Protocol: as §1

[4] = molecular target: SUV420H1TV2 (Homo sapiens, UniProt Q4FZB7); assay: Methyltransferase inhibition panel: SUV420H1TV2; assay type: biochemical
Protocol: as §1

[5] = molecular target: PRMT4 (Homo sapiens, UniProt Q86X55); assay: Methyltransferase inhibition panel: PRMT4; assay type: biochemical
Sequence of PRMT4 (Q86X55 whole entry): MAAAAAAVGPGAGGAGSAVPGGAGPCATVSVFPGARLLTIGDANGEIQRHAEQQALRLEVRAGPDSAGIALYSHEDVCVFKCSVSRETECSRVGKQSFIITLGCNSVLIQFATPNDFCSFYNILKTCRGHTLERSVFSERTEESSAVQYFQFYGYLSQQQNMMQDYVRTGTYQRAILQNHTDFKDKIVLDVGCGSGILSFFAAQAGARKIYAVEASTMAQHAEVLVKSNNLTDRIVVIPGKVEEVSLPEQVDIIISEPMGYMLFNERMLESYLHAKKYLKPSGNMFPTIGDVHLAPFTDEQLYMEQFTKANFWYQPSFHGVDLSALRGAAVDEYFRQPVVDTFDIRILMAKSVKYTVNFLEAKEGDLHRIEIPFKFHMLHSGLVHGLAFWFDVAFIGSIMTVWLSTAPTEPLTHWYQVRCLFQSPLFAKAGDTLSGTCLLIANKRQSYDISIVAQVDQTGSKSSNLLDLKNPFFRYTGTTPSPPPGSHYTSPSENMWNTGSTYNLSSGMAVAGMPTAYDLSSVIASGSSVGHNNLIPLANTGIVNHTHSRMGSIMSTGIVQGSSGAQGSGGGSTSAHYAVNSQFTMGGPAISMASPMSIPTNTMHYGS
Protocol: as §1

[6] = molecular target: MLL1 Complex (Homo sapiens, UniProt Q03164); assay: Methyltransferase inhibition panel: MLL1 Complex; assay type: biochemical
Sequence of MLL1 Complex (Q03164 3745-3969): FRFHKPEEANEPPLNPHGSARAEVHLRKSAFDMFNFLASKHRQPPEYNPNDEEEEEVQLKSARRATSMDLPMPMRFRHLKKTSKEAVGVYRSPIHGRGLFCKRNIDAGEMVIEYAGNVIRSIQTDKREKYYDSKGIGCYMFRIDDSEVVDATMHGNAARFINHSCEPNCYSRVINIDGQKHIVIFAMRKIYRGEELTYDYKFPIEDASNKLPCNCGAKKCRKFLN
Sequence of MLL1 Complex (Q9UBL3 96-628, further chain): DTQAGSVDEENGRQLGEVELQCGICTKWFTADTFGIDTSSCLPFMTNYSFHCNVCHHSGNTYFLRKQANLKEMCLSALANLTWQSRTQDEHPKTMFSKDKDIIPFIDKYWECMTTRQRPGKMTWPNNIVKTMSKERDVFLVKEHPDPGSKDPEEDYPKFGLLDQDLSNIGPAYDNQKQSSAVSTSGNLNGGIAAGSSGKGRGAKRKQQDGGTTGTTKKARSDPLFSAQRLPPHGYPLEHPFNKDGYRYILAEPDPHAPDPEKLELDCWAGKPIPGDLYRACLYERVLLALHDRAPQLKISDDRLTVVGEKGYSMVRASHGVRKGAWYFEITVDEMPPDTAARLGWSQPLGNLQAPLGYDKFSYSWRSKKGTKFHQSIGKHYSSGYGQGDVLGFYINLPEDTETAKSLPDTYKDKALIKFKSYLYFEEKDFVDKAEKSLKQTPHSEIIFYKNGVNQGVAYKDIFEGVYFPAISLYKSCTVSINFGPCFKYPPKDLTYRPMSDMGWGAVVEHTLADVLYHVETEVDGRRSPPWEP
Sequence of MLL1 Complex (Q9C005 whole entry, further chain): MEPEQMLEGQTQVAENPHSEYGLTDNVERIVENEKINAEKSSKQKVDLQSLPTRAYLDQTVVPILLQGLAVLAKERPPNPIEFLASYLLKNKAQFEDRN
Sequence of MLL1 Complex (Q15291 whole entry, further chain): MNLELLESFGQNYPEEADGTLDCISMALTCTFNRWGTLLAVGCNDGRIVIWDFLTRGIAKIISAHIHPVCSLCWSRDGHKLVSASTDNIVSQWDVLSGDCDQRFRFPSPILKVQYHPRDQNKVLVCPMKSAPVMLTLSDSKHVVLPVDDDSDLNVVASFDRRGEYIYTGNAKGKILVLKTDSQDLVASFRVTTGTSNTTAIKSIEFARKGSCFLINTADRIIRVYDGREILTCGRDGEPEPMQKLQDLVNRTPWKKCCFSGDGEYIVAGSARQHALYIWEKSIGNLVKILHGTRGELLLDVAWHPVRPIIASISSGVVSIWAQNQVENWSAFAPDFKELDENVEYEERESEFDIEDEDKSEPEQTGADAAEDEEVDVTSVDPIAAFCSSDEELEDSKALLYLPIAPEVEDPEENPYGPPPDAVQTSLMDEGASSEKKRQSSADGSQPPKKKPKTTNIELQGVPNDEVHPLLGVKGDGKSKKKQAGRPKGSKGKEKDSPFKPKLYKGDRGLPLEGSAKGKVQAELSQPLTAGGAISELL
Protocol: as §1

[7] = molecular target: DNMT3b/3L (Homo sapiens, UniProt Q9UBC3); assay: Methyltransferase inhibition panel: DNMT3b/3L; assay type: biochemical
Protocol: as §1

[8] = molecular target: DNMT3a (Homo sapiens, UniProt Q9Y6K1); assay: Methyltransferase inhibition panel: DNMT3a; assay type: biochemical; settings: NT1721 20 μM; substrate Lambda DNA 0.0075 mg/mL
Protocol: as §1

[9] = molecular target: METTL21A (Homo sapiens, UniProt Q8WXB1); assay: Methyltransferase inhibition panel: METTL21A; assay type: biochemical
Protocol: as §1

[10] = molecular target: SETDB1 (Homo sapiens, UniProt Q15047); assay: Methyltransferase inhibition panel: SETDB1; assay type: biochemical
Protocol: as §1

[11] = molecular target: SETD2 (Homo sapiens, UniProt Q9BYW2); assay: Methyltransferase inhibition panel: SETD2; assay type: biochemical
Sequence of SETD2 (Q9BYW2 whole entry): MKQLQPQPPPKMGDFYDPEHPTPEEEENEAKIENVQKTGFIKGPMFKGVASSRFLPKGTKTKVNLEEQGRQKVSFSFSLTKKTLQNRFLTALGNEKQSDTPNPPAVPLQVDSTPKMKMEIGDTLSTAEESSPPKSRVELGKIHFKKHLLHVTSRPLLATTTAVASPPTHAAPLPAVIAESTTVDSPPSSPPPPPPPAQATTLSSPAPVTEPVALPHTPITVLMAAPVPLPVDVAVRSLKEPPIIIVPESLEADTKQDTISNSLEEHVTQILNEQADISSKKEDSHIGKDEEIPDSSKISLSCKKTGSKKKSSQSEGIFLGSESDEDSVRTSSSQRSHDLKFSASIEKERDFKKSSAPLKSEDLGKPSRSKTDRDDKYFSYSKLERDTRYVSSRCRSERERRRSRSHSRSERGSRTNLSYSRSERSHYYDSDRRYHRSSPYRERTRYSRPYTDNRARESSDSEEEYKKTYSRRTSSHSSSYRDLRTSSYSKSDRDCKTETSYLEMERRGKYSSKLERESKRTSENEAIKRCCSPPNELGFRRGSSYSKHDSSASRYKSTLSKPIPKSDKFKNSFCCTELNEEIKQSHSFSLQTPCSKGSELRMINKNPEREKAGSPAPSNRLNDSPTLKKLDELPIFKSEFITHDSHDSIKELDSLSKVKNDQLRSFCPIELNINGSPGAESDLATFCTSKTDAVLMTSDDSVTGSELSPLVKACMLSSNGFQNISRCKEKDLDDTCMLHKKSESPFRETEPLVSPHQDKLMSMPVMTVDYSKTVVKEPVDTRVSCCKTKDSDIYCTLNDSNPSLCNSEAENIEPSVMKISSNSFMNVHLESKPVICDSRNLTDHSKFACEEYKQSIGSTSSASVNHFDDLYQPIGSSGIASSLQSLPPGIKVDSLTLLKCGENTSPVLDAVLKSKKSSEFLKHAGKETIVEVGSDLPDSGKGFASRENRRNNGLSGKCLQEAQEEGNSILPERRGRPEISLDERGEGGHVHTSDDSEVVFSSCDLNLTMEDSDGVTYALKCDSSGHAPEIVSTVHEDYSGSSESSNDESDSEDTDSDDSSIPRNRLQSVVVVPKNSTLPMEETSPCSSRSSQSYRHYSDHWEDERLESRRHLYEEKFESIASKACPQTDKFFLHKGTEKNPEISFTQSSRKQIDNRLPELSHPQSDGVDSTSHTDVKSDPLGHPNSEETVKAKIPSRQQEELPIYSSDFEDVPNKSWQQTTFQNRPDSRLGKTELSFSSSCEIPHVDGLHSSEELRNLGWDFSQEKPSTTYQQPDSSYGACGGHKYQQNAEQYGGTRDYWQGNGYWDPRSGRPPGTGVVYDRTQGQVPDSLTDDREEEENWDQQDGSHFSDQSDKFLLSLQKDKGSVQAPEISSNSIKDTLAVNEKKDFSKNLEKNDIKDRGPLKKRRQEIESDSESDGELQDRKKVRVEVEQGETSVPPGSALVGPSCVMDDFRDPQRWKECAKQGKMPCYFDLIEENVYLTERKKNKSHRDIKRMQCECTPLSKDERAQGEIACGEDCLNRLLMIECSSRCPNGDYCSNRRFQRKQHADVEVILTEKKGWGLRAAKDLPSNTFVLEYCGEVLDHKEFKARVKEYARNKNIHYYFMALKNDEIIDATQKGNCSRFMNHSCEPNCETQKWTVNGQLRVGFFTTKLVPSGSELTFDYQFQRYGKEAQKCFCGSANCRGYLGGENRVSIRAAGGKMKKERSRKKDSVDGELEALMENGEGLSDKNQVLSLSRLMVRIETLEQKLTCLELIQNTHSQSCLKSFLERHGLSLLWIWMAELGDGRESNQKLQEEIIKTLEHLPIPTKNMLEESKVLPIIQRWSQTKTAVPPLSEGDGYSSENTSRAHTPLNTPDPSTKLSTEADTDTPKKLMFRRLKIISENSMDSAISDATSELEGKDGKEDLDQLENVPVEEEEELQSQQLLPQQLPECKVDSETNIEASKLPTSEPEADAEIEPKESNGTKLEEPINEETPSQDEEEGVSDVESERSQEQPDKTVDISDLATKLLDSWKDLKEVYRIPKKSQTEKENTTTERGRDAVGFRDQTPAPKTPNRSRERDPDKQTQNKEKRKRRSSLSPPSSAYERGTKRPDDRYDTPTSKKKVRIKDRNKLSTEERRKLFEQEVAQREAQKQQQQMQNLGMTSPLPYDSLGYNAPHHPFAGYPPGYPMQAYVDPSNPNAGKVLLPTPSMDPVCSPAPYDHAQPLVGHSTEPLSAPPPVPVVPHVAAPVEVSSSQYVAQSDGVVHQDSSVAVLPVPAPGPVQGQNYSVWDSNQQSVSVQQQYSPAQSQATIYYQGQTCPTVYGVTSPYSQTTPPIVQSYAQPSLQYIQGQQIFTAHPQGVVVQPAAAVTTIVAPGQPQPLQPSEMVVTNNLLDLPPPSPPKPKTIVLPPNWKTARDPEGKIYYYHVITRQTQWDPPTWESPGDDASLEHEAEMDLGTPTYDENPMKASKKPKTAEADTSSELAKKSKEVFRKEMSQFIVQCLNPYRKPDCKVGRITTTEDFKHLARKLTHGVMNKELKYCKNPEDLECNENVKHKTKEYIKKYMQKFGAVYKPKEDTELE
Protocol: as §1

[12] = molecular target: PRDM9 (Homo sapiens, UniProt Q9NQV7); assay: Methyltransferase inhibition panel: PRDM9; assay type: biochemical
Protocol: as §1

[13] = test system: 6E10; assay: 6E10 staining of brain sections; assay type: in vivo; settings: AD+ mice; 4 and 15 days
Text: ETP69 administration reduced AD-related brain pathology (FIGS. 9A-9C). Brain sections were stained for H3K9me3, 6E10 and GFAP.

[14] = molecular target: SUV39H2 (Homo sapiens, UniProt Q9H5I1); assay: Methyltransferase inhibition panel: SUV39H2; assay type: biochemical
Sequence of SUV39H2 (Q9H5I1 whole entry): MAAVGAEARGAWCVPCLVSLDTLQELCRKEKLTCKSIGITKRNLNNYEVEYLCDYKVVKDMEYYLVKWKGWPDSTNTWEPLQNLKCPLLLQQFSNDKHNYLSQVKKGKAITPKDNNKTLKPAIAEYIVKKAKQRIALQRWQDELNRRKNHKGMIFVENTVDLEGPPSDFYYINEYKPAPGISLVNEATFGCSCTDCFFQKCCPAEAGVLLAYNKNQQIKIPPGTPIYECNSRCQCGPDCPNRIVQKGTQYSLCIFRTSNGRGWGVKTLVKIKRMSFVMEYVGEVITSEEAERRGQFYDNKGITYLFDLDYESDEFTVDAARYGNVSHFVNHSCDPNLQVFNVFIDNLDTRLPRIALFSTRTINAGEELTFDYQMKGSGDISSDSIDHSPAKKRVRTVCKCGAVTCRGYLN
Protocol: as §1

[15] = molecular target: SET1b Complex (Homo sapiens, UniProt Q9UPS6); assay: Methyltransferase inhibition panel: SET1b Complex; assay type: biochemical
Protocol: as §1

[16] = read-out: Enzyme % Activity (relative to DMSO controls) Data 1
[17] = read-out: Enzyme % Activity (relative to DMSO controls) Data 2
[18] = NT1721 20 μM, substrate Nucleosomes 0.05 mg/mL

CN1C(=O)[C@@]23C[C@](C)(C#N)[C@H](c4ccc5c(c4)OCO5)N2C(=O)[C@]1(C)SS3 (racemic) [ETP69, Rac-(3S,6S,7S,8aS)-6-(benzo[d][1,3]dioxol-5-yl)-2,3,7-trimethyl-1,4-dioxohexahydro-6H-3,8a-epidithiopyrrolo[1,2-a]pyrazine-7-carbonitrile]
remaining activity at 20 µM [1, 16]: 92.2% | remaining activity at 20 µM [1, 17]: 93.1% | remaining activity at 20 µM [2, 16]: 105% | remaining activity at 20 µM [2, 17]: 108% | remaining activity at 20 µM [3, 16]: 20% | remaining activity at 20 µM [3, 17]: 19.9% | inhibition relative to DMSO controls ([3]; summary of Table 1): at least 7500 | remaining activity at 20 µM [4, 16]: 91.5% | remaining activity at 20 µM [4, 17]: 90% | remaining activity at 20 µM [5, 16]: 115% | remaining activity at 20 µM [5, 17]: 114% | Enzyme % Activity (relative to DMSO controls) Data 1 [6, 18]: 5.08% | Enzyme % Activity (relative to DMSO controls) Data 2 [6, 18]: 5.33% | inhibition relative to DMSO controls ([6]; summary of Table 1): at least 7500 | remaining activity at 20 µM [7, 16]: 113% | remaining activity at 20 µM [7, 17]: 111% | Enzyme % Activity (relative to DMSO controls) Data 1 [8]: 76.81% | Enzyme % Activity (relative to DMSO controls) Data 2 [8]: 78.12% | remaining activity at 20 µM [9, 16]: 78.6% | remaining activity at 20 µM [9, 17]: 78.5% | remaining activity at 20 µM [10, 16]: 40.1% | remaining activity at 20 µM [10, 17]: 37.1% | inhibition relative to DMSO controls ([10]; summary of Table 1): at least 7500 | Enzyme % Activity (relative to DMSO controls) Data 1 [11, 18]: 20.95% | Enzyme % Activity (relative to DMSO controls) Data 2 [11, 18]: 22.89% | inhibition relative to DMSO controls ([11]; summary of Table 1): at least 7500 | remaining activity at 20 µM [12, 16]: 46.2% | remaining activity at 20 µM [12, 17]: 47.1% | inhibition relative to DMSO controls ([12]; summary of Table 1): at least 7500 | 6E10 [13]: significant decrease | remaining activity at 20 µM [14, 16]: 4.4% | remaining activity at 20 µM [14, 17]: 4.4% | inhibition relative to DMSO controls ([14]; summary of Table 1): at least 7500 | remaining activity at 20 µM [15, 16]: 0.6% | remaining activity at 20 µM [15, 17]: 0.47% | inhibition relative to DMSO controls ([15]; summary of Table 1): at least 7500
